Test [1] concerns A/Victoria/3/75 (H3N2) with A28T(HA) and R292K(NA) mutations. Particulars: cited from earlier work.
Test [2] addresses NA enzymatic activity of A/Georgia/20/2006 H274Y (Influenza A virus (H1N1), UniProt B1AGS8). Nature of the test: biochemical. The format is biochemical.
Test [3] has as its target NA enzymatic activity of A/St.Louis/758/09 (Influenza A virus, UniProt D0FH51, S5N). Description: biochemical. To be noted: for R/S: NI assay. The class given is biochemical, IFV A (H1N1).
The target in test [4] is NA enzymatic activity of A/New Jersey/15/2007 (Influenza A virus (H1N1), UniProt D5F1R0, H275Y). The format is biochemical, IFV A (H1N1). Particulars: for R/S: A/New Jersey/15/2007, NI assay.

Where two headings read alike, the source gives them in different places.

In general, IC50 refers to the midpoint of a concentration-inhibition curve.

Consider `CCC(CC)O[C@@H]1C=C(C(=O)O)C[C@H](N)[C@H]1NC(C)=O` [oseltamivir, oseltamivir carboxylate], for which, in test [1], the Resistance is recorded as 3230 fold. The R/S entry in test [2], in test [3] (A/St.Louis/758/09) and in test [4] was “R” throughout. Also, the IC50 is 192 nM in test [2] (read-out: IC50); 88.4 nM in test [3] (A/St.Louis/758/09, mean of triplicate analysis, read-out: IC50); 124 nM in test [4] (A/New Jersey/15/2007 reference virus, mean of triplicate analysis).

Take `CC(=O)N[C@H]1[C@H]([C@H](O)[C@H](O)CO)OC(C(=O)O)=C[C@@H]1N=C(N)N` [zanamivir]: in test [1], the Resistance was 60 fold. For the same compound, the IC50 in test [2] is 0.57 nM; in test [3], 0.34 nM. Also, the R/S entry in test [2], in test [3] (A/St.Louis/758/09) and in test [4] was “S” in each case.

The values are drawn from PMC2770896, “Inhibition of Neuraminidase Inhibitor-Resistant Influenza Virus by DAS181, a Novel Sialidase Fusion Protein” (PLoS ONE, 2009).
